Counter-ions that a name gives are not always drawn.
Legend:
intestinal transit = assay: charcoal meal assay (gastrointestinal motility), alleviation of morphine-induced hypomotility; format: in vivo, mice; conditions: for effect on intestinal transit in the absence of morphine: no morphine, groups 4 and 6; for protection of the intestine against the depressant effect of morphine / percentage of intestine traveled compared with group 1 (no morphine): with morphine; for protection of the intestine against the depressant effect of morphine: groups 5 and 7; for percentage of intestine traveled compared with group 1 (no morphine): groups 5 and 7 vs group 1
Procedure: Summary of the Results of the Charcoal Meal Assay^a
(Gastrointestial Motility) in Mice Given Nalmefene HCl
and Nalmefene-β-D-Glucuronide
^b The first vehicle or drug listed under Treatment was given 30
minutes before the second vehicle or drug listed. The results were
determined 30 min later. All treatments are p.o. and given in a volume of
0.3 ml. Doses were 10 mg/kg for morphine, 15 mg/kg or 2.9 ×

[1] = system: opioid-dependant animals (central nervous system); assay: Rapid Quantitative In Vivo Assay for Narcotic Antagonist (skin tail temperature rise, CNS withdrawal sign); conditions: FIG. 2; injection of 1000 μg/kg
Text: The Rapid Quantitative In Vivo Assay for Narcotic Antagonist of Katovich et al. (Substance and Alcohol Actions/Misuse, vol 5: 87095, 1984) was used. This assay is based on the extreme sensitivity of opioid-dependant animals to narcotic antagonists. Injection of these animals with a narcotic antagonist produces severe central nervous system withdrawal signs. One of these signs is an abrupt rise in the skin temperature of the tail.

[2] = absorption and distribution of ^14 C labelled nalmefene glucuronide after oral administration; format: in vivo, rats
Text: Therefore the glucuronide of an opioid antagonist provides a means of preventing narcotic-induced intestinal hypomotility without interfering with central nervous system effects of narcotics, such as analgesia.

[3] = analysis of blood, urine and feces after oral nalmefene (free nalmefene versus nalmefene glucuronide); format: in vivo, rats; conditions: oral administration
Text: Such a high degree of biotransformation is common for this type of drug.

constipation = conditions: patients not exposed to an exogenous opioid; Kreek et al., Lancet 1983; cited from earlier work

CN1CC[C@]23c4c5ccc(O)c4O[C@H]2[C@@H](O)C=C[C@H]3[C@H]1C5 [Morphine]
Percent Meal Traveled ± S.E.M. (intestinal transit; Group 2: Saline + Morphine, morphine 10 mg/kg p.o. given 30 min after saline, N = 8, significantly different (p < 0.05) from Saline + Saline controls): 28 ± 2%
Percent Meal Traveled ± S.E.M. (intestinal transit; Group 3: Morphine + Saline, morphine 10 mg/kg p.o. given 30 min before saline, N = 8, p < 0.05 vs Saline + Saline, no difference vs Saline + Morphine): 31 ± 3%
reduction of the percentage of the intestine traveled (intestinal transit; morphine, groups 2 and 3): reduced the percentage of the intestine traveled by more than half

C=C1CC[C@@]2(O)[C@H]3Cc4ccc(O)c5c4[C@@]2(CCN3CC2CC2)[C@H]1O5 [Nalmefene HCl]
Percent Meal Traveled ± S.E.M. (intestinal transit; Group 6: Saline + Nalmefene HCl, 2.9 × 10^-6 M/kg p.o., N = 8): 63 ± 2%
Percent Meal Traveled ± S.E.M. (intestinal transit; Group 7: Morphine (10 mg/kg p.o., 30 min before) + Nalmefene HCl 2.9 × 10^-6 M/kg p.o., N = 5, no difference vs Saline + Saline, p < 0.05 vs Morphine + Saline): 66 ± 14%

C=C1CC[C@@]2(O)[C@H]3Cc4ccc(O[C@@H]5O[C@H](C(=O)O)[C@@H](O)[C@H](O)[C@H]5O)c5c4[C@@]2(CCN3CC2CC2)[C@H]1O5 [nalmefene glucuronide, nalmefene-3β-D-glucuronide]
Percent Meal Traveled ± S.E.M. (intestinal transit; Group 4: Saline + Nalmefene Glucuronide, 15 mg/kg or 2.9 × 10^-6 M/kg p.o., N = 8, no significant difference vs Saline + Saline): 66 ± 3%
Percent Meal Traveled ± S.E.M. (intestinal transit; Group 5: Morphine (10 mg/kg p.o., 30 min before) + Nalmefene Glucuronide 15 mg/kg or 2.9 × 10^-6 M/kg p.o., N = 5, no difference vs Saline + Saline, p < 0.05 vs Morphine + Saline): 58 ± 12%
effect on intestinal transit in the absence of morphine (intestinal transit): neither nalmefene (group 6) nor nalmefene glucuronide (group 4) had any significant effect
effectiveness against morphine-induced intestinal hypomotility compared with nalmefene (intestinal transit; vs nalmefene): as effective as nalmefene
protection of the intestine against the depressant effect of morphine (intestinal transit): protected the intestine against the depressant effect of morphine
percentage of intestine traveled compared with group 1 (no morphine) (intestinal transit): not significantly less than in the group (group 1) where no morphine was present
effect on skin tail temperature [1]: no effect
form of the drug in the cecum ([2]; 2 hours after oral dosing): almost exclusively free nalmefene
part of the dose present in the small intestine still as nalmefene glucuronide ([2]; 2 hours after oral dosing): about 85%
part of the dose which had reached the cecum ([2]; 2 hours after oral dosing): 2-3%
radioactivity in plasma ([2]; 2 hours after oral dosing): No radioactivity could be detected in plasma
absorption following oral administration ([2]; ^14 C label, oral doses as high as 40 mg/kg): not absorbed to any measurable extent

C=C1CC[C@@]2(O)[C@H]3Cc4ccc(O)c5c4[C@@]2(CCN3CC2CC2)[C@H]1O5 [nalmefene, 6-methylene-6-desoxy-N-cyclopropylmethyl-14-hydroxydihydronormorphine]
effect on intestinal transit in the absence of morphine (intestinal transit): neither nalmefene (group 6) nor nalmefene glucuronide (group 4) had any significant effect
protection of the intestine against the depressant effect of morphine (intestinal transit): protected the intestine against the depressant effect of morphine
percentage of intestine traveled compared with group 1 (no morphine) (intestinal transit): not significantly less than in the group (group 1) where no morphine was present
biotransformation by "first-pass" metabolism [3]: almost totally biotransformed

C=CCN1CC[C@]23c4c5ccc(O)c4O[C@H]2C(=O)CC[C@@]3(O)[C@H]1C5 [naloxone]
relief of constipation (constipation): relieves constipation

Reference: patent US4774230A, “Glucuronic acid derivatives of opioid antagonists” (Ivax Laboratories, Inc., priority 1988, dated 1988)
